# Measurements published in paper PMC11672637, “7-O-Carboxylic Acid-Substituted 3-O-Alkyl Difluoroquercetin; An Aztreonam-Potentiating Agent Against Carbapenemase-Producing Pseudomonas aeruginosa Through Simultaneous Inhibition of Metallo-β-Lactamase and Efflux Pump” (Antibiotics, 2024).
# What was measured:
# [1] = biological target: AmpC; experiment: β-lactamase inhibition assay (nitrocefin); assay type: biochemical; conditions: nitrocefin substrate; read-out: BLi, IC50 AmpC
# Procedure: (§1) Recombinant AmpC, OXA-48 (residues 23–265) and VIM-2 (residues 27–266) were prepared from Escherichia coli based on previously established protocols. KPC-2 and NDM-1 are commercially available from LifeSpan Biosciences, Inc., Seattle, WA, USA (LS-G26598) and RayBiotech, Inc., Peachtree Corners, GA, USA (230-00554), respectively. For β-lactamase inhibition assay, in a 96-well plate, 70–0.1 μM (in PBS) of the synthesized compounds (1~14) (100 μL) were mixed with diluted β-lactamase stock (2% DMSO in 200 μL). In a separate 96-well plate, a substrate of AmpC, KPC-2, OXA-48, and VIM-2 (nitrocefin) and NDM-1 (imipenem) were added into each well (final concentrations of 70 μM for nitrocefin and 100 μM for imipenem). After incubation at 37 °C for 20 min, the mixture of the synthesized compounds (1~14) and β-lactamase in one plate was added to the substrate in the other plate. Enzymatic hydrolysis of the substrate was then monitored by a Cytation 5 imaging multimode reader (BioTek Instruments Inc., Winooski, VT, USA) at 486 nm and 300 nm for nitrocefin and imipenem, respectively, for 15 min. The rates of hydrolysis in the presence of the inhibitors were determined when the reaction rate plateaued. Comparison of the enzymatic hydrolysis rates in the presence and the absence of inhibitors (100%) provided the percentage of enzyme inhibition at each concentration of the synthesized compounds. The IC50 values were obtained after non-linear regression (sigmoidal dose-responses) by GraphPad Prism 5 (GraphPad Software, Boston, MA, USA).
# [2] = rat, cited from earlier work
# [3] = test system: efflux pump activity in P. aeruginosa (PA-017, blaNDM); experiment: EtBr accumulation, inhibition of efflux pump activity; assay type: cell-based; conditions: EtBr fluorescence compared with positive control CCCP
# Procedure: The NDM-producing P. aeruginosa clinical isolate (PA-017, blaNDM) (5 mL, LB medium) was grown to reach the mid-log phase. After centrifugation at 3500 rpm for 15 min, the bacterial pellet was washed twice with PBS and resuspended to OD600 = 0.3 in PBS. To each well of a flat-bottomed black 96-well plate, 182 µL of the bacterial suspension, 4 µL of glucose [final concentration = 0.4% (w/v)], 4 µL of the synthesized compounds or positive control CCCP, and 10 µL of EtBr (final concentration = 1 µg/mL) were added. The plate was incubated at 37 °C, and fluorescence emission from EtBr (λex 480 nm/λem 630 nm) was recorded every 2 min (for 60 min) using a Cytation 5 imaging multi-mode reader (BioTek Instruments, Inc., Winooski, VT, USA).
# [4] = test system: NDM-1-Producing P. aeruginosa (PA-017, blaNDM); experiment: MIC / checkerboard with ATM; assay type: cell-based; conditions: PA-017; for MIC: Pseudomonas aeruginosa, compound alone, read-out: MIC, Cmpd
# [5] = biological target: T1, NDM-1 (Klebsiella pneumoniae, UniProt C7C422); experiment: β-lactamase inhibition assay (imipenem); assay type: biochemical; conditions: imipenem substrate; read-out: BLi, IC50 NDM-1
# T1 construct: purchased RayBiotech, Inc. 230-00554
# Procedure: as §1
# [6] = biological target: T2, VIM-2 (Escherichia coli, UniProt Q5U7L7); experiment: β-lactamase inhibition assay (nitrocefin); assay type: biochemical; conditions: nitrocefin substrate; read-out: BLi, IC50 VIM-2
# T2 construct: VIM-2 (residues 27–266); made in house; host or cells: Escherichia coli
# Procedure: as §1
# [7] = biological target: T3, KPC-2 (Klebsiella pneumoniae, UniProt Q9F663); experiment: β-lactamase inhibition assay (nitrocefin); assay type: biochemical; conditions: nitrocefin substrate; read-out: BLi, IC50 KPC-2
# T3 construct: purchased LifeSpan Biosciences, Inc. LS-G26598
# Procedure: as §1
# [8] = biological target: T4, OXA-48 (Klebsiella pneumoniae, UniProt Q6XEC0); experiment: β-lactamase inhibition assay (nitrocefin); assay type: biochemical; conditions: nitrocefin substrate; read-out: BLi, IC50 OXA-48
# T4 construct: OXA-48 (residues 23–265); made in house; host or cells: Escherichia coli
# Procedure: as §1
# [9] = test system: Ambler Class C β-lactamases; design: method as in earlier work; conditions: Table S1; cited from earlier work
# [10] = test system: Ambler Class A β-lactamases; design: method as in earlier work; conditions: Table S1; cited from earlier work
# [11] = test system: Ambler Class D β-lactamases; design: method as in earlier work; conditions: Table S1; cited from earlier work
# T1 sequence (C7C422 29-270, looked up, species assumed): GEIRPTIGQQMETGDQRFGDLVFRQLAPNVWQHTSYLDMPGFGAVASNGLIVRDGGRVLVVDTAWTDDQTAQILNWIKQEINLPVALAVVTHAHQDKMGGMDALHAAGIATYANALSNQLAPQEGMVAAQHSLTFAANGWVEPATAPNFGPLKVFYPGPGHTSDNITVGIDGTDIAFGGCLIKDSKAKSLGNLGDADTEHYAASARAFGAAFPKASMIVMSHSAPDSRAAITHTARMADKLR
# T3 sequence (Q9F663 25-293, looked up, species assumed): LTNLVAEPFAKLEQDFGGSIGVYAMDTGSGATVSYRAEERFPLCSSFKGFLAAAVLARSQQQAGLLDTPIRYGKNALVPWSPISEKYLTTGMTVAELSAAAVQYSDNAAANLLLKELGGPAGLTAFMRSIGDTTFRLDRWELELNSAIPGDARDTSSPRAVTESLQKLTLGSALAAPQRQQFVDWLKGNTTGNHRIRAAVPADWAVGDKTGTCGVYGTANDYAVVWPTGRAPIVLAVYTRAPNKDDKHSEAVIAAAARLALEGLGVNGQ
# T4 sequence (Q6XEC0 23-265 limits assumed): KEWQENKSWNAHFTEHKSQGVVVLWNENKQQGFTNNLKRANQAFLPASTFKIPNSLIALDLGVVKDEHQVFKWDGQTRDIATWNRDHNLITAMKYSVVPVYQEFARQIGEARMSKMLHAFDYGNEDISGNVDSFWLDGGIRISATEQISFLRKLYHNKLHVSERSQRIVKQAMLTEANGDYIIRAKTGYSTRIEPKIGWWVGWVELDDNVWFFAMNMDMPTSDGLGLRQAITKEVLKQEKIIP
smiles,measurement,setting,value
CC(C)(C)CCOc1c(-c2ccc(F)c(F)c2)oc2cc(O)cc(O)c2c1=O [Compound 1],IC50,[1],18.9 ± 1.8 µM
same,F (mean oral bioavailability),[2],0.27%
same,AUClast,[2]; oral administration,20 ng·h/mL
same,Cmax,[2]; oral administration,10 ng/mL
same,EPi (inhibition of efflux pump activity),[3],↑↑↑ ^e
same,FD (fold decrease in the MIC of ATM upon combination with the compound),[4],2
same,MIC,[4],> 256 µg/mL
"C[N+](C)(CCNC(=O)COc1cc(O)c2c(=O)c(OCCC3CCCCC3)c(-c3ccc(F)c(F)c3)oc2c1)CC(=O)[O-] [Compound 8, 2-((2-(2-((3-(2-Cyclohexylethoxy)-2-(3,4-difluorophenyl)-5-hydroxy-4-oxo-4H-chromen-7-yl)oxy)acetamido)ethyl)dimethylammonio)acetate]",IC50,[5],> 50 µM
same,IC50,[1],> 50 µM
same,IC50,[6],> 100 µM
same,IC50,[7],> 50 µM
same,IC50,[8],> 100 µM
same,EPi (inhibition of efflux pump activity),[3],- ^f
same,FD (fold decrease in the MIC of ATM upon combination with the compound),[4],2
same,MIC,[4],> 256 µg/mL
"CC(C)(C)CCOc1c(-c2ccc(F)c(F)c2)oc2cc(OCC(=O)Nc3ccccc3)cc(O)c2c1=O [Compound 9, 2-((2-(3,4-Difluorophenyl)-3-(3,3-dimethylbutoxy)-5-hydroxy-4-oxo-4H-chromen-7-yl)oxy)-N-phenylacetamide]",IC50,[5],7.6 ± 0.3 µM
same,IC50,[1],> 50 µM
same,IC50,[6],12.6 ± 1.2 µM
same,IC50,[7],26.2 ± 1.5 µM
same,IC50,[8],6.4 ± 0.6 µM
same,EPi (inhibition of efflux pump activity),[3],- ^f
same,FD (fold decrease in the MIC of ATM upon combination with the compound),[4],1
same,MIC,[4],> 256 µg/mL
"NC(=O)[C@@H]1CC[C@@H]2CN1C(=O)N2OS(=O)(=O)O [AVI, avibactam]",BLi activity (Ambler Class C),[9],inhibits
same,BLi activity (Ambler Class A),[10],inhibits
same,BLi activity (Ambler Class D),[11],inhibits
"CN1CCN(CCOc2cc(O)c3c(=O)c(OCCC(C)(C)C)c(-c4ccc(F)c(F)c4)oc3c2)CC1 [Compound 13, 2-(3,4-Difluorophenyl)-3-(3,3-dimethylbutoxy)-5-hydroxy-7-(2-(4-methylpiperazin-1-yl)ethoxy)-4H-chromen-4-one]",IC50,[5],> 50 µM
same,IC50,[1],> 50 µM
same,IC50,[6],> 100 µM
same,IC50,[7],> 50 µM
same,IC50,[8],> 100 µM
same,EPi (inhibition of efflux pump activity),[3],- ^f
same,FD (fold decrease in the MIC of ATM upon combination with the compound),[4],2
same,MIC,[4],> 256 µg/mL
"CN1CCCC1CCOc1cc(O)c2c(=O)c(OCCC(C)(C)C)c(-c3ccc(F)c(F)c3)oc2c1 (stereo not drawn) [Compound 12, 2-(3,4-Difluorophenyl)-3-(3,3-dimethylbutoxy)-5-hydroxy-7-(2-(1-methylpyrrolidin-2-yl)ethoxy)-4H-chromen-4-one]",IC50,[5],> 50 µM
same,IC50,[1],> 50 µM
same,IC50,[6],> 100 µM
same,IC50,[7],> 50 µM
same,IC50,[8],> 100 µM
same,EPi (inhibition of efflux pump activity),[3],- ^f
same,FD (fold decrease in the MIC of ATM upon combination with the compound),[4],2
same,MIC,[4],> 256 µg/mL
"CN1CCN(CCOc2cc(O)c3c(=O)c(OCCC4CCCC4)c(-c4ccc(F)c(F)c4)oc3c2)CC1 [Compound 14, 3-(2-Cyclopentylethoxy)-2-(3,4-difluorophenyl)-5-hydroxy-7-(2-(4-methylpiperazin-1-yl)ethoxy)-4H-chromen-4-one]",IC50,[5],> 50 µM
same,IC50,[1],> 50 µM
same,IC50,[6],> 100 µM
same,IC50,[7],> 50 µM
same,IC50,[8],> 100 µM
same,EPi (inhibition of efflux pump activity),[3],- ^f
same,FD (fold decrease in the MIC of ATM upon combination with the compound),[4],2
same,MIC,[4],> 256 µg/mL
"CC(C)(C)CCOc1c(-c2ccc(F)c(F)c2)oc2cc(OCC(=O)N[C@@H](CCCCN)C(=O)O)cc(O)c2c1=O.Cl [Compound 11, (S)-6-Amino-2-(2-((2-(3,4-difluorophenyl)-3-(3,3-dimethylbutoxy)-5-hydroxy-4-oxo-4H-chromen-7-yl)oxy)acetamido)hexanoic Acid Hydrochloride]",IC50,[5],> 50 µM
same,IC50,[1],> 50 µM
same,IC50,[6],> 100 µM
same,IC50,[7],> 50 µM
same,IC50,[8],> 100 µM
same,EPi (inhibition of efflux pump activity),[3],- ^f
same,FD (fold decrease in the MIC of ATM upon combination with the compound),[4],1
same,MIC,[4],> 256 µg/mL
"O=C(O)COc1cc(O)c2c(=O)c(OCCC3CCCCC3)c(-c3ccc(F)c(F)c3)oc2c1 [Compound 7, 2-((3-(2-Cyclohexylethoxy)-2-(3,4-difluorophenyl)-5-hydroxy-4-oxo-4H-chromen-7-yl)oxy)acetic Acid]",IC50,[5],14.7 ± 1.6 µM
same,IC50,[1],> 50 µM
same,IC50,[6],21 ± 1.3 µM
same,IC50,[7],> 50 µM
same,IC50,[8],> 100 µM
same,EPi (inhibition of efflux pump activity),[3],↑ ^g
same,FD (fold decrease in the MIC of ATM upon combination with the compound),[4],4
same,MIC,[4],> 256 µg/mL
